From ChEMBL document CHEMBL4339219, “Drug Design and Synthesis of First in Class PDZ1 Targeting NHERF1 Inhibitors as Anticancer Agents” (ACS Med Chem Lett, 2019)

Assays:
[1] = test system: DLD-1; experiment: cells; conditions: Homo sapiens, DLD-1, 72 h
[2] = test system: SW480; experiment: cells; conditions: Homo sapiens, SW480, 72 h
[3] = test system: DLD-1; experiment: cells; conditions: Homo sapiens, DLD-1, 72 h; remark: listed apart in the source
[4] = test system: DLD-1; experiment: cells; conditions: Homo sapiens, DLD-1, 72 h; remark: listed apart in the source
[5] = test system: SW480; experiment: cells; conditions: Homo sapiens, SW480, 72 h; remark: listed apart in the source
[6] = test system: SW480; experiment: cells; conditions: Homo sapiens, SW480, 72 h; remark: listed apart in the source
[7] = test system: SW-620; experiment: cells; conditions: Homo sapiens, SW-620, 72 h
[8] = test system: HEK-293T; experiment: Effect on FOP reporter expression in LiCl-induced HEK293T cells incubated for 24 hrs by luciferase reporter gene assay; format: ADME, cell-based; conditions: human
[9] = test system: SW-620; experiment: cells; conditions: Homo sapiens, SW-620, 72 h; remark: listed apart in the source

Row | SMILES | IC50 [1] [nM] | IC50 [2] [nM] | IC50 [3] [nM] | IC50 [4] [nM] | IC50 [5] [nM] | IC50 [6] [nM] | IC50 [7] [nM] | Activity [8] | IC50 [9] [nM]
1 | Cc1cc([N+](=O)[O-])ccc1NS(=O)(=O)c1cc(Cl)ccc1Cl | 28000 | 10000 |  |  |  |  |  |  | 
2 | O=C(Nc1ccccc1CO)c1c[nH]c2ccc(Cl)cc12 |  |  | 800 | 100 | 3000 | 300 | 22000 |  | 
3 | CCOC(=O)c1ccc(NS(=O)(=O)c2ccc(Br)cc2)cc1 |  |  |  |  |  |  |  | Non-Toxic | 
4 | O=C(Nc1ccc(CO)cc1)c1[nH]c2ccc(Cl)cc2c1Cc1ccccc1 |  |  | 500 | 100 | 900 | 100 | 18000 |  | 500
